The values below come from ChEMBL document CHEMBL1151523, “Synthesis of ()-6-(3-aminopropyloxy)methyl-4-demethoxy-6, 7-dideoxy-daunomycinone, a new dna intercalator related to anthracyclines” (Bioorg Med Chem Lett, 1995).

What all share (format): nucleic-acid assay, Bos taurus
In test [1] the test system is Nucleic Acid. The test can be described thus: Binding affinity to Calf thymus DNA type XV; value ranges from 2E6 - 4E6 M-1.
The subject of test [2] is Nucleic Acid. Briefly: Binding affinity to Calf thymus DNA type XV.
Test [3] deals with Nucleic Acid. The test can be described thus: Binding affinity to Calf thymus DNA type XV; value ranges from 1E4 - 3E4 M-1.
Test [4] relates to Nucleic Acid. Briefly: Binding affinity to Calf thymus DNA type XV; value ranges from 4E6 - 6E6 M-1.

SMILES strings stand for the structures.

In the test with Nucleic Acid [1], `COc1cccc2c1C(=O)c1c(O)c3c(c(O)c1C2=O)C[C@@](O)(C(=O)CO)C[C@@H]3O[C@H]1C[C@H](N)[C@H](O)[C@H](C)O1` [DOXORUBICIN] came in with a Ka of 2000000 M⁻¹.

In turn, `CC(=O)[C@@]1(O)CCc2c(c(O)c3c(c2COCCCN)C(=O)c2ccccc2C3=O)C1.Cl` yielded a Ka in the test on Nucleic Acid [2] of 61000 M⁻¹.

Regarding `COc1cccc2c1C(=O)c1c(O)c3c(c(O)c1C2=O)C[C@@](O)(C(C)=O)C[C@@H]3O` [DAUNOMYCINONE], the Ka in the test with Nucleic Acid [3] stood at 10000 M⁻¹.

`COc1cccc2c1C(=O)c1c(O)c3c(c(O)c1C2=O)C[C@@](O)(C(C)=O)C[C@@H]3O[C@H]1C[C@H](N)[C@H](O)[C@H](C)O1.Cl` [DAUNORUBICIN HYDROCHLORIDE]: the Ka in the test with Nucleic Acid [4] stood at 4000000 M⁻¹.
